# Assays:
# Sclerotinia sclerotiorum [1] = assay: Antifungal activity against Sclerotinia sclerotiorum assessed as inhibition of germination in volatile phase at 102 umol/l measured at 20 degC after 5 days; format: functional; details: 120 h
# Sclerotinia sclerotiorum [2] = assay: Antifungal activity against Sclerotinia sclerotiorum assessed as inhibition of mycelial growth in volatile phase at 714 umol/l measured at 20 degC after 5 days; format: functional; details: 120 h, read-out: GI
# Sclerotinia sclerotiorum [3] = assay: Antifungal activity against Sclerotinia sclerotiorum assessed as inhibition of mycelial growth in contact phase at 2043 umol/l measured at 20 degC after 5 days; format: functional; details: 120 h, read-out: GI
# Sclerotinia sclerotiorum [4] = assay: Antifungal activity against Sclerotinia sclerotiorum assessed as inhibition of mycelial growth in contact phase at 3065 umol/l measured at 20 degC after 5 days; format: functional; details: 120 h, read-out: GI
# Sclerotinia sclerotiorum [5] = assay: Fungistatic activity in Sclerotinia sclerotiorum assessed as inhibition of mycelial growth in volatile phase measured at 20 degC after 5 days; format: functional, organism-based; details: 120 h
# Sclerotinia sclerotiorum [6] = assay: Fungistatic activity in Sclerotinia sclerotiorum assessed as inhibition of carpogenic germination in volatile phase at 102 umol/l measured at 20 degC after 5 days relative to control; format: functional; details: 120 h
# Sclerotinia sclerotiorum [7] = assay: Antifungal activity against Sclerotinia sclerotiorum assessed as inhibition of mycelial growth in volatile phase at 51 umol/l measured at 20 degC after 5 days; format: functional; details: 120 h, read-out: GI
# Sclerotinia sclerotiorum [8] = assay: Antifungal activity against Sclerotinia sclerotiorum assessed as inhibition of mycelial growth in contact phase at 920 umol/l measured at 20 degC after 5 days; format: functional; details: 120 h, read-out: GI
# Sclerotinia sclerotiorum [9] = assay: Antifungal activity against Sclerotinia sclerotiorum assessed as inhibition of mycelial growth in contact phase at 1022 umol/l measured at 20 degC after 5 days; format: functional; details: 120 h, read-out: GI
# Sclerotinia sclerotiorum [10] = assay: Fungistatic activity in Sclerotinia sclerotiorum assessed as inhibition of mycelial growth in contact phase at 3065 umol/l measured at 20 degC after 5 days relative to control; format: functional; details: 120 h, read-out: GI
# Sclerotinia sclerotiorum [11] = assay: Antifungal activity against Sclerotinia sclerotiorum assessed as inhibition of germination in volatile phase at 307 umol/l measured at 20 degC after 5 days; format: functional; details: 120 h
# Sclerotinia sclerotiorum [12] = assay: Antifungal activity against Sclerotinia sclerotiorum assessed as inhibition of mycelial growth in volatile phase at 102 umol/l measured at 20 degC after 5 days; format: functional; details: 120 h, read-out: GI
# Sclerotinia sclerotiorum [13] = assay: Antifungal activity against Sclerotinia sclerotiorum assessed as inhibition of mycelial growth in contact phase at 715 umol/l measured at 20 degC after 5 days; format: functional; details: 120 h, read-out: GI
# Sclerotinia sclerotiorum [14] = assay: Antifungal activity against Sclerotinia sclerotiorum assessed as inhibition of germination in volatile phase at 51 umol/l measured at 20 degC after 5 days; format: functional; details: 120 h
# Sclerotinia sclerotiorum [15] = assay: Fungistatic activity in Sclerotinia sclerotiorum assessed as inhibition of mycelial growth in volatile phase at 714 umol/l measured at 20 degC after 5 days relative to control; format: functional; details: 120 h, read-out: GI
# Sclerotinia sclerotiorum [16] = assay: Antifungal activity against Sclerotinia sclerotiorum assessed as inhibition of germination in volatile phase at 1022 umol/l measured at 20 degC after 5 days; format: functional; details: 120 h
# Sclerotinia sclerotiorum [17] = assay: In vivo antifungal Sclerotinia sclerotiorum in Pepper (Capsicum annuum L. cv. Sera Demre) assessed as inhibition of mycelial growth in volatile phase at 102 umol/L measured after 10 to 14 weeks; format: functional
# Sclerotinia sclerotiorum [18] = assay: Fungistatic activity in Sclerotinia sclerotiorum assessed as inhibition of carpogenic germination in volatile phase at 510 umol/l measured at 20 degC after 5 days relative to control; format: functional; details: 120 h
# Sclerotinia sclerotiorum [19] = assay: Antifungal activity against Sclerotinia sclerotiorum assessed as inhibition of germination in volatile phase at 511 umol/l measured at 20 degC after 5 days; format: functional; details: 120 h
# Sclerotinia sclerotiorum [20] = assay: Fungitoxic activity in Sclerotinia sclerotiorum assessed as inhibition of mycelial growth in volatile phase at 1020 umol/l measured at 20 degC after 5 days relative to control; format: functional; details: 120 h, read-out: GI
# Sclerotinia sclerotiorum [21] = assay: Fungistatic activity in Sclerotinia sclerotiorum assessed as inhibition of carpogenic germination in volatile phase at 51 umol/l measured at 20 degC after 5 days relative to control; format: functional; details: 120 h
# Sclerotinia sclerotiorum [22] = assay: In vivo antifungal Sclerotinia sclerotiorum in Pepper (Capsicum annuum L. cv. Sera Demre) assessed as inhibition of mycelial growth in volatile phase at 204 umol/L measured after 10 to 14 weeks; format: functional
# Sclerotinia sclerotiorum [23] = assay: Antifungal activity against Sclerotinia sclerotiorum assessed as inhibition of mycelial growth in volatile phase at 1020 umol/l measured at 20 degC after 5 days; format: functional; details: 120 h, read-out: GI
# Sclerotinia sclerotiorum [24] = assay: Fungistatic activity in Sclerotinia sclerotiorum assessed as inhibition of mycelial growth in contact phase measured at 20 degC after 5 days; format: functional, organism-based; details: 120 h
# Sclerotinia sclerotiorum [25] = assay: Antifungal activity against Sclerotinia sclerotiorum assessed as inhibition of mycelial growth in volatile phase at 510 umol/l measured at 20 degC after 5 days; format: functional; details: 120 h, read-out: GI
# Sclerotinia sclerotiorum [26] = assay: Fungistatic activity in Sclerotinia sclerotiorum assessed as inhibition of carpogenic germination in volatile phase at 1020 umol/l measured at 20 degC after 5 days relative to control; format: functional; details: 120 h
compound,measurement,setting,value
C=CCN=C=S [ALLYL ISOTHIOCYANATE],inhibition at 102 µM,Sclerotinia sclerotiorum [1],0%
same,inhibition of growth at 714 µM,Sclerotinia sclerotiorum [2],100%
same,inhibition of growth at 2043 µM,Sclerotinia sclerotiorum [3],77%
same,inhibition of growth at 3065 µM,Sclerotinia sclerotiorum [4],100%
same,EC50,Sclerotinia sclerotiorum [5],71.5 µM
same,inhibition at 102 µM,Sclerotinia sclerotiorum [6],67.5%
same,inhibition of growth at 51 µM,Sclerotinia sclerotiorum [7],45.7%
same,inhibition of growth at 920 µM,Sclerotinia sclerotiorum [8],37.7%
same,inhibition of growth at 1022 µM,Sclerotinia sclerotiorum [9],45.5%
same,inhibition of growth at 3065 µM,Sclerotinia sclerotiorum [10],100%
same,inhibition at 307 µM,Sclerotinia sclerotiorum [11],0%
same,inhibition of growth at 102 µM,Sclerotinia sclerotiorum [12],50.7%
same,inhibition of growth at 715 µM,Sclerotinia sclerotiorum [13],32%
same,inhibition at 51 µM,Sclerotinia sclerotiorum [14],0%
same,inhibition of growth at 714 µM,Sclerotinia sclerotiorum [15],100%
same,inhibition at 1022 µM,Sclerotinia sclerotiorum [16],0%
same,inhibition in vivo at 102 µM,Sclerotinia sclerotiorum [17],76.7%
same,inhibition at 510 µM,Sclerotinia sclerotiorum [18],67.5%
same,inhibition at 511 µM,Sclerotinia sclerotiorum [19],0%
same,inhibition of growth at 1020 µM,Sclerotinia sclerotiorum [20],100%
same,inhibition at 51 µM,Sclerotinia sclerotiorum [21],60%
same,inhibition in vivo at 204 µM,Sclerotinia sclerotiorum [22],81.7%
same,inhibition of growth at 1020 µM,Sclerotinia sclerotiorum [23],100%
same,EC50,Sclerotinia sclerotiorum [24],1060 µM
same,inhibition of growth at 510 µM,Sclerotinia sclerotiorum [25],87%
same,inhibition at 1020 µM,Sclerotinia sclerotiorum [26],75%
